Laboratory results: patent publication US8163909B2, “Substituted hydroxyethyl amine compounds as beta-secretase modulators and methods of use” (Amgen Inc., priority 2007, dated 2012)
Like-named read-outs stand apart in the source and are kept apart here.

Legend:
[1] = target: Beta Secretase enzyme (BACE) (Homo sapiens, UniProt P56817); experiment: In vitro enzymatic BACE FRET (fluorescence resonance energy transfer) assay; assay type: biochemical;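 also: fluorescence read after 1 h with 50 nM quenched peptide substrate spanning the BACE cleavage site, in pH 4.2 acetate buffer containing 10% DMSO and nonionic detergent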
Beta Secretase enzyme (BACE), sequence (P56817 46-501): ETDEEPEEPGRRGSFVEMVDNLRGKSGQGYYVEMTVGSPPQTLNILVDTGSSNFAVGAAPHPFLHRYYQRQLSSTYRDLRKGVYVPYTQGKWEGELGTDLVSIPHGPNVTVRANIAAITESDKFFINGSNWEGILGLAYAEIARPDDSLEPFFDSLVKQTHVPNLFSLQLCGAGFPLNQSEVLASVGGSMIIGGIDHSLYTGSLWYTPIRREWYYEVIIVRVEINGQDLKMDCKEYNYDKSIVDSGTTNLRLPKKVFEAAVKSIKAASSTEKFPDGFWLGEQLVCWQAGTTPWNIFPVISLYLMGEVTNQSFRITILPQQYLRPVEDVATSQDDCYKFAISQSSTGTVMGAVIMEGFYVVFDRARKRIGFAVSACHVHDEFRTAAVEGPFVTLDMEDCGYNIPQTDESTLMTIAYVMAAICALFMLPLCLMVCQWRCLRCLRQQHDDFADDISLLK

[2] = test system: Aβ40 in conditioned medium of cells stably expressing Amyloid Precursor Protein (APP); experiment: In vitro BACE cell-based assay (Aβ40 in conditioned medium, sandwich ELISA); conditions: Homo sapiens;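 also: compounds added as a dilution series, secreted peptide quantified by europium time-resolved fluorescence readout, potency fitted from percent of control versus compound concentration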
[3] = target: CYP3A4 (CYP3A) (Homo sapiens, UniProt P08684); experiment: in vitro; conditions: microsomes, pH 7.4;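 also: inhibition of CYP3A-mediated 1-hydroxymidazolam formation after 10 min incubation with NADPH, quantified by HPLC MS relative to metabolite produced without test compound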
CYP3A4 (CYP3A), sequence (P08684 2-503): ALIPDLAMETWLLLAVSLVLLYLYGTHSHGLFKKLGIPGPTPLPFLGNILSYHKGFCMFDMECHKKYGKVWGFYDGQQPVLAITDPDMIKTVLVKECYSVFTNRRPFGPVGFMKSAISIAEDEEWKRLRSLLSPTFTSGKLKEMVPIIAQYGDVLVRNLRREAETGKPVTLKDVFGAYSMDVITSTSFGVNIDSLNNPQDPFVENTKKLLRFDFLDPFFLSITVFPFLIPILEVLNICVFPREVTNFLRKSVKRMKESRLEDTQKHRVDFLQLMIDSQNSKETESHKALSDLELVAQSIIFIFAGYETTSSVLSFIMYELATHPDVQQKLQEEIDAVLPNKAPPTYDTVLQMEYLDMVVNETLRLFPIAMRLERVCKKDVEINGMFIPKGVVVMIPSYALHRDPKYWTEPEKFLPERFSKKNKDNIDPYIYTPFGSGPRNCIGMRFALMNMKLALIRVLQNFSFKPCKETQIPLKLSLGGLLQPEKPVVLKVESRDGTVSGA

[4] = Microsomal stability assay, rat liver microsomes;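 also: rat liver microsomes (0.25 mg/mL) with about 1 µM compound plus 1 mM NADPH, pH 7.4, 37 °C for 30 min, parent left measured by LC-MS/MS against 0 min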
[5] = Microsomal stability assay, human liver microsomes;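 also: pooled human liver microsomes at 0.25 mg/mL with 1 µM compound and NADPH at 37 °C, pH 7.4, for 30 min, unchanged parent quantified by LC-MS/MS against the 0 min sample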
[6] = target: CYP2D6 (Homo sapiens, UniProt P10635); experiment: CYP2D6 inhibition assay (bufuralol, pooled human liver microsomes)
CYP2D6, sequence (P10635 whole entry): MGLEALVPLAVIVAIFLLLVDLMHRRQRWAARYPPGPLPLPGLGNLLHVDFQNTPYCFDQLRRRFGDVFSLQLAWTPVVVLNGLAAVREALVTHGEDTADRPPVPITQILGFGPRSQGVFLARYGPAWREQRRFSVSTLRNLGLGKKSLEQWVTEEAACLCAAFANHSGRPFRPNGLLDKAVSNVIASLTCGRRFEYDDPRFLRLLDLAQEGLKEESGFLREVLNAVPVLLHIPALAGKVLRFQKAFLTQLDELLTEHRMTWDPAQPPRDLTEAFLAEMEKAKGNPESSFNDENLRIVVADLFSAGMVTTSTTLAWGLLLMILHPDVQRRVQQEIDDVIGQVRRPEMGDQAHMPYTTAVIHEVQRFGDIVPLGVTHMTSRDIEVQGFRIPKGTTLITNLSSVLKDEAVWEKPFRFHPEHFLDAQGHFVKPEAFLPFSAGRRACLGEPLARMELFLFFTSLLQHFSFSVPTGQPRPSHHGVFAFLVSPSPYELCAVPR

[7] = BACE enzyme assay, IC50's in uM, read-out: BACE1 FRET assay
[8] = HEK293, HEK cell-based assay, IC50's in uM, read-out: HEK cell assay
[9] = 2D6 IC50 (uM), CYP enzyme inhibition
[10] = read-out: BACE1 FRET assay (IC50)
[11] = HEK293, HEK cells, read-out: HEK cell assay (IC50)
[12] = BACE enzyme assay, read-out: BACE1 FRET assay
[13] = HEK293, HEK cells, read-out: HEK cell assay
[14] = BACE enzyme assay IC50, read-out: BACE1 FRET assay
[15] = HEK293, HEK cell-based assay IC50, read-out: HEK cell assay
[16] = 2D6 IC50 (uM), CYP2D6 inhibition
[17] = Table 2, read-out: BACE1 FRET assay
[18] = HEK293, Table 2, HEK cells, read-out: HEK cell assay
[19] = 2D6 IC50, CYP enzyme inhibition

| Compound | IC50 [3] [nM] | RLM ([4]; rat liver microsomal data) [µL/min/mg] | HLM ([5]; human liver microsomal data) [µL/min/mg] | IC50 [6, 9] [µM] | IC50 [1, 12] [µM] | IC50 [2, 13] [µM] | further results |
| --- | --- | --- | --- | --- | --- | --- | --- |
| COCC(=O)N[C@@H](Cc1cccc(-c2ncco2)c1)[C@H](O)CN[C@H]1CC2(CCC2)Oc2ncc(CC(C)C)cc21 [compound 804, N-((1S,2R)-2-hydroxy-3-(((4′S)-6′-(2-methylpropyl)-3′,4′-dihydrospiro[cyclobutane-1,2′-pyrano[2,3-b]pyridin]-4′-yl)amino)-1-(3-(1,3-oxazol-2-yl)benzyl)propyl)-2-methoxyacetamide] | 200 | 43 | 61 | 2.5 |  |  | IC50 [1, 7]: 0.009 µM; IC50 [2, 8]: 0.03 µM |
| C[C@H](F)C(=O)N[C@@H](Cc1cccc(F)c1)[C@H](O)CN[C@H]1CC2(CCC2)Oc2ncc(CC(C)(F)F)cc21 [compound 608] | 4500 |  |  |  |  |  | IC50 [1, 10]: 0.008 µM; IC50 [2, 11]: 0.016 µM; RLM ([4]; rat liver microsomes): 183 µL/min/mg; HLM ([5]; human liver microsomes): 232 µL/min/mg; IC50 ([6]; 2D6 IC50, CYP2D6 inhibition): 12.2 µM |
| COCC(=O)N[C@@H](Cc1cccc(F)c1)[C@H](O)CN[C@H]1CC2(CCC2)Oc2c1cc(CC(C)(C)C)nc2-c1ccncc1 [compound 531] | 200 | 159 | 40 | 1.3 | 0.013 | 0.029 |  |
| CO[C@H](C)C(=O)N[C@@H](Cc1cccc(Br)c1)[C@H](O)CN[C@H]1CC2(CCC2)Oc2ncc(CC(C)C)cc21 [compound 801] | 300 | 644 | 399 | 3.8 |  |  | IC50 [1, 7]: 0.016 µM; IC50 [2, 8]: 0.118 µM |
| CC[C@@H](OC)C(=O)N[C@@H](Cc1ccc(F)cc1)[C@H](O)CN[C@H]1CC2(CCC2)Oc2ncc(CC(C)(C)C)cc21 [compound 566] | 300 | 590 | 392 | 13 | 0.026 | 0.165 |  |
| COCC(=O)N[C@@H](Cc1ccccc1)[C@H](O)CN[C@H]1CC2(CCC2)Oc2c1cc(CC(C)C)cc2-n1ccnc1 [compound 546] | 100 | 267 | 75 | 3.8 | 0.025 | 0.033 |  |
| CC(C)(C)Cc1cnc2c(c1)[C@@H](NC[C@@H](O)[C@H](Cc1ccc(F)cc1)NC(=O)[C@H]1CN(Cc3ccccc3)CCO1)CC1(CCC1)O2 [compound 717] | 200 |  |  |  |  |  | IC50 [1, 14]: 0.013 µM; IC50 [2, 15]: 0.011 µM; RLM ([4]; rat liver microsomes): 298 µL/min/mg; HLM ([5]; human liver microsomes): 775 µL/min/mg; IC50 [6, 16]: 3.6 µM |
| Cc1ccc(CN2CCO[C@H](C(=O)N[C@@H](Cc3ccc(F)cc3)[C@H](O)CN[C@H]3CC4(CCC4)Oc4ncc(CC(C)(C)C)cc43)C2)cc1 [compound 708] | 200 |  |  |  |  |  | IC50 [1, 14]: 0.154 µM; IC50 [2, 15]: 0.257 µM; RLM ([4]; rat liver microsomes): 278 µL/min/mg; HLM ([5]; human liver microsomes): 310 µL/min/mg; IC50 [6, 16]: 6.8 µM |
| COCC(=O)N[C@@H](Cc1ccc(F)cc1)[C@H](O)CN[C@H]1CC2(CCC2)Oc2nc(C)c(CC(C)(C)C)cc21 [compound 468] | 500 | 662 | 736 |  |  |  | IC50 [1, 17]: 0.097 µM; IC50 [2, 18]: 0.108 µM; IC50 [6, 19]: 9.6 µM |
| CC(=O)N[C@@H](Cc1cc(F)cc(-c2ccncc2)c1)[C@H](O)CN[C@H]1CC2(CCC2)Oc2ccc(CC(C)(C)C)cc21 [Example 433, N-((2S,3R)-4-((S)-2,2-spirocyclobutyl-6-neopentyl-3,4-dihydro-2H-chromen-4-ylamino)-1-(3-fluoro-5-(pyridin-4-yl)phenyl)-3-hydroxybutan-2-yl)acetamide] | 1100 |  |  |  |  |  | IC50 [1, 10]: 0.021 µM; IC50 [2, 11]: 0.038 µM; RLM ([4]; rat liver microsomes): 590 µL/min/mg; HLM ([5]; human liver microsomes): 492 µL/min/mg; IC50 ([6]; 2D6 IC50, CYP2D6 inhibition): 0.2 µM |
| COCC(=O)N[C@@H](Cc1cc(F)cc(F)c1)[C@H](O)CN[C@H]1CC2(CCC2)Oc2c(-c3cccnc3)cc(CC(C)(C)C)cc21 [compound 489] | 400 | 775 | 399 | 3.9 | 0.007 | 0.02 |  |
| COCC(=O)N[C@@H](Cc1cc(F)cc(F)c1)[C@H](O)CN[C@H]1CC2(CCC2)Oc2c(-c3nccs3)cc(CC(C)C)cc21 [compound 460] | 800 | 775 | 775 |  |  |  | IC50 [1, 17]: 0.001 µM; IC50 [2, 18]: 0.028 µM; IC50 [6, 19]: 3.9 µM |
| C#Cc1cccc(C[C@H](NC(=O)[C@@H](C)OC)[C@H](O)CN[C@H]2CC3(CCC3)Oc3ncc(CC(C)C)cc32)c1 [Example 777, (2R)-N-((1S,2R)-1-(3-ethynylbenzyl)-2-hydroxy-3-(((4′S)-6′-(2-methylpropyl)-3′,4′-dihydrospiro[cyclobutane-1,2′-pyrano[2,3-b]pyridin]-4′-yl)amino)propyl)-2-methoxypropanamide] | 100 | 38 | 29 | 2.1 |  |  | IC50 [1, 7]: 0.006 µM; IC50 [2, 8]: 0.013 µM |
| CNc1nc(CC(C)C)cc2c1OC1(CCC1)C[C@@H]2NC[C@@H](O)[C@H](Cc1ccc2c(c1)OCO2)NC(=O)COC [compound 681] | 800 |  |  |  |  |  | IC50 [1, 14]: 0.064 µM; IC50 [2, 15]: 0.014 µM; RLM ([4]; rat liver microsomes): 392 µL/min/mg; HLM ([5]; human liver microsomes): 197 µL/min/mg; IC50 [6, 16]: 9.2 µM |
| COCC(=O)N[C@@H](Cc1cccc(F)c1)[C@H](O)CN[C@H]1CC2(CCC2)Oc2c1cc(CC(C)C)cc2-n1ccnc1 [compound 520] | 100 | 144 | 32 | 0.9 | 0.018 | 0.009 |  |
| CC(=O)N[C@@H](Cc1ccc2c(c1)OCO2)[C@H](O)CN[C@H]1CC2(CCC2)Oc2ncc(CC(F)(F)F)cc21 [compound 517] | 500 | 51 | 32 | 7.8 | 0.178 | 0.202 |  |
| COCC(=O)N[C@@H](Cc1cc(F)cc(F)c1)[C@H](O)CN[C@H]1CC2(CCC2)Oc2c(-c3cnc[nH]3)cc(CC(C)C)cc21 [compound 480] | 500 | 405 | 272 |  |  |  | IC50 [1, 17]: 0.023 µM; IC50 [2, 18]: 0.006 µM; IC50 [6, 19]: 10.1 µM |
| CC(=O)N[C@@H](Cc1cc(F)cc(F)c1)[C@H](O)CN[C@H]1CC2(CCC2)Oc2c1cc(CC(C)(C)C)nc2-c1ccncc1 [compound 584] | 100 |  |  |  |  |  | IC50 [1, 10]: 0.011 µM; IC50 [2, 11]: 0.013 µM; RLM ([4]; rat liver microsomes): 50 µL/min/mg; HLM ([5]; human liver microsomes): 18 µL/min/mg; IC50 ([6]; 2D6 IC50, CYP2D6 inhibition): 14.5 µM |
| CO[C@H](C)C(=O)N[C@@H](Cc1ccc2c(c1)OCO2)[C@H](O)CN[C@@H]1c2cc(CC(C)(C)C)cnc2OC2(CCC2)[C@H]1F [compound 539] | 100 | 161 | 61 | 6.5 | 4.77 | 0.147 |  |
| CC[C@H](OC)C(=O)N[C@@H](Cc1ccc(F)cc1)[C@H](O)CN[C@H]1CC2(CCC2)Oc2ncc(CC(C)(C)C)cc21 [compound 572] | 200 | 569 | 290 | 8.1 | 0.102 | 0.094 |  |
| COCC(=O)N[C@@H](Cc1cc(F)cc(F)c1)[C@H](O)CN[C@H]1CC2(CCC2)Oc2c(Br)cc(CC(C)(C)C)cc21 [compound 464] | 1500 | 364 | 463 |  |  |  | IC50 [1, 17]: 0.004 µM; IC50 [2, 18]: 0.091 µM; IC50 [6, 19]: 11.5 µM |
| COCC(=O)N[C@@H](Cc1cccc(F)c1)[C@H](O)CN[C@H]1CC2(CCC2)Oc2c1cc(CC(C)(C)C)cc2-n1ccnc1 [compound 505] | 100 | 153 | 51.5 | 1.9 | 0.019 | 0.006 |  |
| CC(C)(C)Cc1cnc2c(c1)[C@@H](NC[C@@H](O)[C@H](Cc1ccc(F)cc1)NC(=O)[C@@H]1CN(Cc3ccccc3)CCO1)CC1(CCC1)O2 [compound 711] | 300 |  |  |  |  |  | IC50 [1, 14]: 0.04 µM; IC50 [2, 15]: 0.124 µM; RLM ([4]; rat liver microsomes): 399 µL/min/mg; HLM ([5]; human liver microsomes): 706 µL/min/mg; IC50 [6, 16]: 8.2 µM |
| CC(C)(C)Cc1cnc2c(c1)[C@@H](NC[C@@H](O)[C@H](Cc1cc(F)cc(-c3nccs3)c1)NC(=O)[C@H]1CCCO1)CC1(CCC1)O2 [compound 877] | 200 | 64 | 46 |  |  |  | IC50 [1, 7]: 0.005 µM; IC50 ([2]; HEK293, cell-based assay, HEK cells, IC50's in uM, read-out: HEK cell assay): 0.012 µM; IC50 [6, 19]: 0.7 µM |
| COC(OC)C(=O)N[C@@H](Cc1cccc(F)c1)[C@H](O)CN[C@H]1CC2(CCC2)Oc2ncc(CC(C)(F)F)cc21 [compound 797] | 1400 | 199 | 256 | 4.1 |  |  | IC50 [1, 7]: 0.008 µM; IC50 [2, 8]: 0.017 µM |
| CO[C@H](C)C(=O)N[C@@H](Cc1cccc(F)c1)[C@H](O)CN[C@H]1CC2(CCC2)Oc2c1cc(CC(C)(C)C)cc2-n1ccnc1 [compound 522] | 100 | 141 | 43 | 3.1 | 0.044 | 0.013 |  |
